Measured values from PubChem BioAssay AID1259407 (Chemical Carcinogenesis Research Information System (CCRIS), 2018).
The source made the active and inactive calls. No rule for the calls is given here.

System: CCRIS mutagenicity, Ames/micronucleus/aberration tests
Test: CCRIS mutagenicity studies
[1] = Test System: AMES SALMONELLA TYPHIMURIUM, Strain/Indicator: TA98, Metabolic Activation: NONE, Method: PREINCUBATION
[2] = Test System: AMES SALMONELLA TYPHIMURIUM, Strain/Indicator: TA100, Metabolic Activation: NONE, Method: PREINCUBATION
[3] = Test System: AMES SALMONELLA TYPHIMURIUM, Strain/Indicator: TA1535, Metabolic Activation: NONE, Method: PREINCUBATION
[4] = Test System: AMES SALMONELLA TYPHIMURIUM, Strain/Indicator: TA1537, Metabolic Activation: NONE, Method: PREINCUBATION

CCOC(=O)OCC
mutagenic call (Test System: AMES SALMONELLA TYPHIMURIUM, Strain/Indicator: TA98, Metabolic Activation: HAMSTER, LIVER, S-9, AROCLOR 1254 (10%), Method: PREINCUBATION): inactive; negative
mutagenic call [1]: inactive; negative
mutagenic call (Test System: AMES SALMONELLA TYPHIMURIUM, Strain/Indicator: TA98, Metabolic Activation: RAT, LIVER, S-9, AROCLOR 1254 (10%), Method: PREINCUBATION): inactive; negative
mutagenic call (Test System: AMES SALMONELLA TYPHIMURIUM, Strain/Indicator: TA100, Metabolic Activation: HAMSTER, LIVER, S-9, AROCLOR 1254 (10%), Method: PREINCUBATION): inactive; negative
mutagenic call [2]: inactive; negative
mutagenic call (Test System: AMES SALMONELLA TYPHIMURIUM, Strain/Indicator: TA100, Metabolic Activation: RAT, LIVER, S-9, AROCLOR 1254 (10%), Method: PREINCUBATION): inactive; negative
mutagenic call (Test System: AMES SALMONELLA TYPHIMURIUM, Strain/Indicator: TA1535, Metabolic Activation: HAMSTER, LIVER, S-9, AROCLOR 1254 (10%), Method: PREINCUBATION): inactive; negative
mutagenic call [3]: inactive; negative
mutagenic call (Test System: AMES SALMONELLA TYPHIMURIUM, Strain/Indicator: TA1535, Metabolic Activation: RAT, LIVER, S-9, AROCLOR 1254 (10%), Method: PREINCUBATION): inactive; negative
mutagenic call (Test System: AMES SALMONELLA TYPHIMURIUM, Strain/Indicator: TA1537, Metabolic Activation: HAMSTER, LIVER, S-9, AROCLOR 1254 (10%), Method: PREINCUBATION): inactive; negative
mutagenic call [4]: inactive; negative
mutagenic call (Test System: AMES SALMONELLA TYPHIMURIUM, Strain/Indicator: TA1537, Metabolic Activation: RAT, LIVER, S-9, AROCLOR 1254 (10%), Method: PREINCUBATION): inactive; negative

CN(Cc1cnc2nc(N)nc(N)c2n1)c1c(Cl)cc(C(=O)N[C@@H](CCC(=O)O)C(=O)O)cc1Cl
mutagenic call (Test System: AMES SALMONELLA TYPHIMURIUM, Strain/Indicator: TA97, Metabolic Activation: HAMSTER, LIVER, S-9, AROCLOR 1254 (10 OR 30%), Method: PREINCUBATION): inactive; negative
mutagenic call (Test System: AMES SALMONELLA TYPHIMURIUM, Strain/Indicator: TA97, Metabolic Activation: NONE, Method: PREINCUBATION): inactive; negative
mutagenic call (Test System: AMES SALMONELLA TYPHIMURIUM, Strain/Indicator: TA97, Metabolic Activation: RAT, LIVER, S-9, AROCLOR 1254 (10 OR 30%), Method: PREINCUBATION): inactive; negative
mutagenic call (Test System: AMES SALMONELLA TYPHIMURIUM, Strain/Indicator: TA98, Metabolic Activation: HAMSTER, LIVER, S-9, AROCLOR 1254 (10 OR 30%), Method: PREINCUBATION): inactive; negative
mutagenic call [1]: inactive; negative
mutagenic call (Test System: AMES SALMONELLA TYPHIMURIUM, Strain/Indicator: TA98, Metabolic Activation: RAT, LIVER, S-9, AROCLOR 1254 (10 OR 30%), Method: PREINCUBATION): inactive; negative
mutagenic call (Test System: AMES SALMONELLA TYPHIMURIUM, Strain/Indicator: TA100, Metabolic Activation: HAMSTER, LIVER, S-9, AROCLOR 1254 (10 OR 30%), Method: PREINCUBATION): inactive; negative
mutagenic call [2]: inactive; negative
mutagenic call (Test System: AMES SALMONELLA TYPHIMURIUM, Strain/Indicator: TA100, Metabolic Activation: RAT, LIVER, S-9, AROCLOR 1254 (10 OR 30%), Method: PREINCUBATION): inactive; negative
mutagenic call (Test System: AMES SALMONELLA TYPHIMURIUM, Strain/Indicator: TA1535, Metabolic Activation: HAMSTER, LIVER, S-9, AROCLOR 1254 (10 OR 30%), Method: PREINCUBATION): inactive; negative
mutagenic call [3]: inactive; negative
mutagenic call (Test System: AMES SALMONELLA TYPHIMURIUM, Strain/Indicator: TA1535, Metabolic Activation: RAT, LIVER, S-9, AROCLOR 1254 (10 OR 30%), Method: PREINCUBATION): inactive; negative
mutagenic call (Test System: AMES SALMONELLA TYPHIMURIUM, Strain/Indicator: TA1537, Metabolic Activation: HAMSTER, LIVER, S-9, AROCLOR 1254 (10 OR 30%), Method: PREINCUBATION): inactive; negative
mutagenic call [4]: inactive; negative
mutagenic call (Test System: AMES SALMONELLA TYPHIMURIUM, Strain/Indicator: TA1537, Metabolic Activation: RAT, LIVER, S-9, AROCLOR 1254 (10 OR 30%), Method: PREINCUBATION): inactive; negative

C=C(Br)CCl
mutagenic call (Test System: AMES SALMONELLA TYPHIMURIUM, Strain/Indicator: TA100, Metabolic Activation: RAT, LIVER, MICROSOMES, PHENOBARBITAL, NADPH COFACTORS, Method: STANDARD PLATE): active; positive
mutagenic call (Test System: AMES SALMONELLA TYPHIMURIUM, Strain/Indicator: TA100, Metabolic Activation: RAT, LIVER, MICROSOMES, PHENOBARBITAL, Method: STANDARD PLATE): inactive; negative

[Be+2]
mutagenic call [1]: inactive; negative
mutagenic call (Test System: AMES SALMONELLA TYPHIMURIUM, Strain/Indicator: TA98, Metabolic Activation: RAT, LIVER, S-9, (10%), Method: PREINCUBATION): inactive; negative
mutagenic call [2]: inactive; negative
mutagenic call (Test System: AMES SALMONELLA TYPHIMURIUM, Strain/Indicator: TA100, Metabolic Activation: RAT,LIVER, S-9 (10%), Method: PREINCUBATION): inactive; negative

O=C1C=CC(=O)C(c2ccc(Cl)cc2)=C1
mutagenic call (End Point: In vitro micronucleus, Test System: Chinese hamster lung V79 cells, Metabolic Activation: None): active; positive
